Consider seven compounds from patent publication US10711245B2, “Direct conversion method of human fibroblasts into neural stem cells using small molecules” (KOREA UNIVERSITY RESEARCH AND BUSINESS FOUNDATION, priority 2015, dated 2020).

This test relates to human fibroblasts. The experiment in a line: Marker gene expression by quantitative PCR in human fibroblasts cultured with each single small-molecule compound. The note with it: each compound alone in neurobasal medium (DMEM/F12, N2, B27, bFGF, EGF), markers nestin, sox1, sox2, pax6. The test is classed as cell-based. The method, then:
To investigate the function of each of small-molecule compounds and find an optimal combination of small-molecule compounds, 1×10^5 human fibroblasts were prepared in 60 mm dishes, and on the next day, the cells were cultured in a neurobasal medium (containing DMEM/F12, N2, B27, bFGF, and EGF) supplemented with each of 13 different small-molecule compounds (PD0325901, SB431542, Thiazovivin, Ascorbic acid, PS48, CHIR99021, Deazaneplanocin A, Valproic acid, Forskolin, Tranylcypromine, A8301, 5-AZA, and Purmorphamine). Then, the morphological changes of the cells were observed while the medium was replaced at 2-3-day intervals (FIG. 1). The cells were subcultured at 5-day intervals, and in this stage, the cells were sampled in order to examine gene expression patterns therein. Using the cell sample, the expression patterns of a fibroblast marker (Thy1), neural stem cell markers (nestin, sox1, sox2, pax6), a MET or EMT marker (snail, N-cadherin, E-cadherin), endodermal and mesodermal markers (AFP, GATA4), and a marker (Zsacn4) associated with the maintenance of chromosomal stability, in the cell sample, were analyzed by quantitative PCR (FIG. 2).

Molecules are shown by their SMILES.

On to `Nc1ncn([C@@H]2O[C@H](CO)[C@@H](O)[C@H]2O)c(=O)n1` [5-AZA, 4-amino-1-β-D-ribofuranosyl-1,3,5-triazin-2(1H)-one], for which the “expressions of the neural stem cell marker genes” value (from here on “expressions”) is listed as “distinctly increased”.

As for `Cc1cccc(-c2nn(C(=S)Nc3ccccc3)cc2-c2ccnc3ccccc23)n1` [A8301, 3-(6-Methyl-2-pyridinyl)-N-phenyl-4-(4-quinolinyl)-1H-pyrazole-1-carbothioamide], the “expressions” value was “distinctly increased”.

As for `Cc1cnc(-c2cnc(NCCNc3ccc(C#N)cn3)nc2-c2ccc(Cl)cc2Cl)[nH]1` [CHIR99021, 6-[[2-[[4-(2,4-dichlorophenyl)-5-(5-methyl-1H-imidazol-2-yl)-2-pyrimidinyl]amino]ethyl]amino]-3-pyridinecarbonitrile], the “expressions” value is “distinctly increased”.

On to `Nc1nccc2c1ncn2[C@@H]1C=C(CO)[C@@H](O)[C@H]1O` [Deazaneplanocin A, 5R-(4-amino-1H-imidazo[4,5-c]pyridin-1-yl)-3-(hydroxymethyl)-3-cyclopentene-1S,2R-diol], for which the “expressions” value is given as “distinctly increased”.

`NC(=O)c1ccc(-c2nc(-c3ccc4c(c3)OCO4)c(-c3ccccn3)[nH]2)cc1` [SB431542, 4-[4-(3,4-Methylenedioxyphenyl)-5-(2-pyridyl)-1H-imidazol-2-yl]benzamide]: the “expressions” value is “distinctly increased”.

Consider `O=C(NCc1ccccc1)c1csc(Nc2ccncn2)n1` [Thiazovivin, N-(phenylmethyl)-2-(4-pyrimidinylamino)-4-thiazolecarboxamide], for which the “expressions” value was “distinctly increased”.

With `CCCC(CCC)C(=O)O` [Valproic acid, 2-propyl-pentanoic acid], the “expressions” value is listed as “distinctly increased”.
